Where “and” joins values, the source holds several entries; their conditions need not be identical. Identical values can stand only once.
Experiments:
[1] = molecular target: T1, murine PPARγ (mPPARγ) (Mus musculus, UniProt P37238); test: LC-MS/MS of covalent binding to mPPARγ overexpressed in HEK293T cells; settings: HEK293T cells overexpressing mPPARγ
T1 construct: host or cells: HEK293T
Protocol: HEK293T cells were transfected with murin PPARγ (mPPARγ) and mPPARγ C313A plasmids for immunoprecipitation, which are Myc-DDK-tagged (OriGene, USA). […] According to the manufacturer’s protocol, proteins were immunoprecipitated using Anti-FLAG® M2 Magnetic Beads (2.5 mg/ml; cat. no. F1804, Sigma-Aldrich). Subsequently, the eluted proteins were separated by SDS-PAGE and subjected to immunoblot analysis. Following separation by SDS-PAGE, proteins were stained with Coomassie blue and SYPRO-Ruby stain. The protein bands of interest were cut out for in-gel tryptic digestion followed by C18 Zip-Tip clean-up (Millipore, USA). For proteomic shotgun identifications, nanoLC-nanoESI-MS/MS analysis was performed on a nanoAcquity system (Waters, USA) connected to the LTQ Orbitrap Velos hybrid MS (Thermo Electron, USA) equipped with a PicoView nanospray interface (New Objective, USA). Samples were loaded onto a C18 BEH column (75 μm × 25 cm length, 130 Å, 1.7 μm particle size) (Waters, USA) and separated by a segmented gradient form in 60 min from 5% to 40% acetonitrile (with 0.1% formic acid) at a constant flow rate of 300 nL/min with a column temperature of 35 °C. The mass spectrometer was operated in the data-dependent mode. […] Protein identification and modification were analyzed using Mascot Daemon (Matrix Science Inc., Chicago). […]

[2] = tested on: HFHSD-fed obese C57BL6/J mice; test: Energy expenditure, food intake and physical activity (indirect calorimetry); assay type: in vivo, mouse; settings: 40 mg/kg/day ip, vs vehicle
Protocol: Metabolic measurements (food and water intake, locomotor activity, VO2 consumption and VCO2 production) were obtained using the Promethion metabolic phenotyping system (Sable Systems). The mice were housed in the Promethion system with ad libitum access to food and water. Monitoring was performed for 5 days after mice have been acclimatized to the cages for 2 days.
All values were expressed as mean ± S.E.M. All reported sample sizes were biologically independent but not technically repeatedly measured. Skewed data was logarithmized to approximate normal distribution. Comparisons between two separate groups were performed using Student t-tests. Comparisons among multiple groups were conducted using a one-way analysis of variance with post hoc analyses. Statistical analyses were conducted using GraphPad Prism 8.0 and SAS 9. Energy expenditure between genotypes was analyzed using the generalized linear model according to international guidance (Speakman et al, [2013]; Tschöp et al, [2011]). Energy expenditure (expressed as kcal/hr) was regressed on body weight using the command “glm” implemented in STATA 14.0 (Speakman et al, [2013]; Tschöp et al, [2011]). Two-sided p-values < 0.05 were considered statistically significant. The sample size was determined according to our previous experience. There was no exclusion/inclusion criteria, blinding and randomization.

[3] = tested on: HFHSD-fed obese C57BL6/J mice; test: Diet-induced thermogenesis; assay type: in vivo, mouse; settings: for interscapular area temperature, Average: Figure 2S left panel; for interscapular area temperature, Average / inguinal area temperature, Average / rectal temperatures, Average / inguinal area temperature / interscapular area temperature / rectal temperatures: in °C; for inguinal area temperature, Average: Figure 2S middle panel; for rectal temperatures, Average: Figure 2S right panel; for inguinal area temperature / interscapular area temperature / rectal temperatures: Figure 2S, individual mice
Protocol: For the cold tolerance test, 24-week-old mice with matched average body weight from the two groups were placed individually on HFHSD in a 4 °C chamber. The rectal temperature of the mice was measured after 0, 1, 2, 3, 4, 5, 6, 12, and 18 h. For measuring diet-induced thermogenesis, 24-week-old mice were fasted overnight for 18 h. Then, we measured their rectal temperature at 0, 30, 60, 90, 120, 150, 180, and 240 min after HFHSD refeeding. The rectal and surface temperature were detected by thermal probes (Physitemp Therma TH-5, ThermoWorks, Alpine and MicroTherma 2T, ThermoWorks, Alpine, respectively).

T1 sequence (P37238 whole entry): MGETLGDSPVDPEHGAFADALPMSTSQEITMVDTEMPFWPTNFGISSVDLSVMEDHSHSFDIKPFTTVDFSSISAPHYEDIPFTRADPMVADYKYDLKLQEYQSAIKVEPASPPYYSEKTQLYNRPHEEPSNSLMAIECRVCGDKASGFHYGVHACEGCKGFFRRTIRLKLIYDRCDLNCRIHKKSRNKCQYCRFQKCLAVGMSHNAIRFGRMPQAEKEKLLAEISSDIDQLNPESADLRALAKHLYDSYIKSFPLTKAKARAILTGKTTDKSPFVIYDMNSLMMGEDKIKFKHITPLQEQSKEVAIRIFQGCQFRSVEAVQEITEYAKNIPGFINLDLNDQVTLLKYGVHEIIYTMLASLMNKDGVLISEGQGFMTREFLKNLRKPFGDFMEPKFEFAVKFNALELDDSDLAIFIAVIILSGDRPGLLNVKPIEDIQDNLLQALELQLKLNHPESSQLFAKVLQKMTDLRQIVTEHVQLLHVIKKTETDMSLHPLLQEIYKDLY

## CCCCCC(=O)/C=C/[C@H]1[C@H](O)CC(=O)[C@@H]1C/C=C\CCCC(=O)O [15-keto-PGE2, 15-keto-prostaglandin E2]
[1]
  covalent binding site on mPPARγ (LC-MS/MS): covalently binds mPPARγ at the Cys313 residue
[2]; age 8 weeks
  energy expenditure: Higher energy expenditure
[2]
  Food intake: similar
  physical activity: similar
[3]; 40 mg/kg/day ip, vs vehicle
  interscapular, inguinal and rectal temperatures after HFHSD feeding: higher interscapular, inguinal, and rectal temperatures after HFHSD feeding
[3]; period 0 min
  interscapular area temperature, Average: 36.7067
  inguinal area temperature, Average: 35.1463
  rectal temperatures, Average: 36.6549
  inguinal area temperature: 35.4 and 35.2 and 34.79 and 34.8 and 34.56 and 35 and 35.185 and 35.735 and 36 and 34.735 and 35.25 and 35.645 and 34.88 and 34.815
  interscapular area temperature: 36.9 and 37.4 and 36.4 and 36.8 and 36.6 and 37.8 and 35.4 and 36.2 and 37
  rectal temperatures: 36.805 and 37.06 and 36.54 and 36.445
[3]; period 30 min
  interscapular area temperature, Average: 37.7933
  inguinal area temperature, Average: 36.4001
  rectal temperatures, Average: 37.7723
  inguinal area temperature: 36.955 and 36.815 and 36.705 and 36.42 and 36.0964 and 35.905 and 36.6 and 35.865 and 35.975 and 36.115 and 36.825 and 36.785 and 36.43 and 36.095 and 36.415
  interscapular area temperature: 38.1 and 38.2 and 37.6 and 37.2 and 37.5 and 37.7 and 37.9 and 37.8
  rectal temperatures: 38.255 and 38.275 and 37.755 and 37.72
[3]; period 60 min
  interscapular area temperature, Average: 37.6333
  inguinal area temperature, Average: 36.234
  rectal temperatures, Average: 37.6257
  inguinal area temperature: 36.755 and 36.7 and 36.085 and 36.255 and 36.2 and 35.5 and 35.9 and 35.67 and 36.1 and 36.955 and 36.3 and 36.545 and 36.31 and 35.98
  interscapular area temperature: 38 and 38.3 and 37.8 and 37.5 and 37.7 and 37.4 and 37.6 and 37.2
  rectal temperatures: 38.085 and 37.94 and 37.88 and 37.79
[3]; period 120 min
  interscapular area temperature, Average: 37.5133
  inguinal area temperature, Average: 35.9052
  rectal temperatures, Average: 37.398
  inguinal area temperature: 36.81 and 36.5 and 36.135 and 35.755 and 36.1679 and 35.38 and 35.6 and 35.29 and 35.4 and 36.16 and 36.2 and 35.9 and 36.075 and 35.355 and 35.85
  interscapular area temperature: 37.7 and 38.2 and 37.9 and 37.6 and 37.2 and 37.1 and 37.5 and 37.4 and 37.3
  rectal temperatures: 37.95 and 37.965 and 37.615
[3]; period 180 min
  interscapular area temperature, Average: 37.3533
  inguinal area temperature, Average: 35.7573
  rectal temperatures, Average: 37.3676
  inguinal area temperature: 36.105 and 36.3 and 36.27 and 35.585 and 35.8 and 35.3 and 35.4 and 35.7 and 36.1 and 35.765 and 35.535
  interscapular area temperature: 37.5 and 38.4 and 37.6 and 37.4 and 36.5 and 37.2 and 37.1 and 36.9 and 37 and 37.8
  rectal temperatures: 37.665 and 37.81 and 37.52
[3]; period 240 min
  interscapular area temperature, Average: 37.1267
  inguinal area temperature, Average: 35.4703
  rectal temperatures, Average: 37.1984
  inguinal area temperature: 35.995 and 36.065 and 35.575 and 35.82 and 35.715 and 35.26 and 35.2 and 35.6 and 36.2 and 35.1 and 35.12 and 34.905
  interscapular area temperature: 37.1 and 37.5 and 37 and 37.2 and 37.3 and 36.2 and 36.8 and 37.4 and 36.6
  rectal temperatures: 37.705 and 37.57 and 37.21
